Source: ChEMBL document CHEMBL5465560, “Selectivity Literature for EUbOPEN Chemogenomic Library” (2024)

What was measured:
[1] = target: Ribosomal protein S6 kinase alpha-2 (Homo sapiens) (UniProt Q15349); assay: Selectivity interaction (KinomeScan (DiscoverX)) EUB0000666a RPS6KA2; conditions: at 10 µM
[2] = target: SRSF protein kinase 1 (Homo sapiens, UniProt Q96SB4); assay: Selectivity interaction (ActivX KiNativ screen (kinase selectivity in THP-1 cell lysates)) EUB0000639a SRPK1; type: subcellular; conditions: lysate, at 0.04 µM
Sequence of SRSF protein kinase 1 (Q96SB4 whole entry): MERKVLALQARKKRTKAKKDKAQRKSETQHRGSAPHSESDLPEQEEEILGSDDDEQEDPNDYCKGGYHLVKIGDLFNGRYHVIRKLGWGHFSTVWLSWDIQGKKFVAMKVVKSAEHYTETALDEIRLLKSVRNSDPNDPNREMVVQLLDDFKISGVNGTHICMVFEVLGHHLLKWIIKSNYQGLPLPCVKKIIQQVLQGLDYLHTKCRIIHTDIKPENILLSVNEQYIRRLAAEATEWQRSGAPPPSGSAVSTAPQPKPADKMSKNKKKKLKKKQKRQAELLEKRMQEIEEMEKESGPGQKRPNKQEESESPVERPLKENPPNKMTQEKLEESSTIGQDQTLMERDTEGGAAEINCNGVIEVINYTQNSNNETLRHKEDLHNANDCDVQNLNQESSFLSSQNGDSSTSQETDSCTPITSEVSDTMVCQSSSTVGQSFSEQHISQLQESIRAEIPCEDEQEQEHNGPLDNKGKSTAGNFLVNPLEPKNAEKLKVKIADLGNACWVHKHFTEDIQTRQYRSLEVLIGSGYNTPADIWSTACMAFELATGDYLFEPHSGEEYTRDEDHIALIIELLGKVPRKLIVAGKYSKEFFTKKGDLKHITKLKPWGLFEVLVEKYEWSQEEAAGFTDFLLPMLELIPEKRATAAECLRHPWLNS

[3] = target: Cyclin-dependent kinase 18 (Homo sapiens) (UniProt Q07002); assay: Selectivity interaction (KinomeScan (DiscoverX)) EUB0000595a CDK18; conditions: at 10 µM
Sequence of Cyclin-dependent kinase 18 (Homo sapiens) (Q07002 whole entry): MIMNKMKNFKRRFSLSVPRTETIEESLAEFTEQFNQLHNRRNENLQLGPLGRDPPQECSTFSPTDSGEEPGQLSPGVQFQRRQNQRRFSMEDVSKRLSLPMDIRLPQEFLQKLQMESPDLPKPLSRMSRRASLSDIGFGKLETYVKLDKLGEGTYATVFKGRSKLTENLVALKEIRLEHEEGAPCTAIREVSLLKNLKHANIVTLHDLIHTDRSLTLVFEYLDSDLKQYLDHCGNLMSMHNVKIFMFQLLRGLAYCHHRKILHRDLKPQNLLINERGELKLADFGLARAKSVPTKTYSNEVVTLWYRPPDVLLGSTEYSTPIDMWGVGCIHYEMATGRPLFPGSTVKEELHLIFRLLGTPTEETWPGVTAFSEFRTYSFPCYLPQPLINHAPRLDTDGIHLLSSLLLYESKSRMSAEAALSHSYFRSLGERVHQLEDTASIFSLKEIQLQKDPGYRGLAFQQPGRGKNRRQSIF

[4] = tested on: Hepatocyte growth factor receptor (Homo sapiens), P08581 [Y1235D]; assay: (§1) Selectivity interaction (KinomeScan (DiscoverX)) EUB0001049a MET; conditions: at 1 µM
[5] = tested on: Hepatocyte growth factor receptor (Homo sapiens), P08581 [M1250T]; assay: as §1; conditions: at 1 µM
[6] = target: Hepatocyte growth factor receptor (Homo sapiens, UniProt P08581); assay: as §1; conditions: at 1 µM
Sequence of Hepatocyte growth factor receptor (P08581 whole entry): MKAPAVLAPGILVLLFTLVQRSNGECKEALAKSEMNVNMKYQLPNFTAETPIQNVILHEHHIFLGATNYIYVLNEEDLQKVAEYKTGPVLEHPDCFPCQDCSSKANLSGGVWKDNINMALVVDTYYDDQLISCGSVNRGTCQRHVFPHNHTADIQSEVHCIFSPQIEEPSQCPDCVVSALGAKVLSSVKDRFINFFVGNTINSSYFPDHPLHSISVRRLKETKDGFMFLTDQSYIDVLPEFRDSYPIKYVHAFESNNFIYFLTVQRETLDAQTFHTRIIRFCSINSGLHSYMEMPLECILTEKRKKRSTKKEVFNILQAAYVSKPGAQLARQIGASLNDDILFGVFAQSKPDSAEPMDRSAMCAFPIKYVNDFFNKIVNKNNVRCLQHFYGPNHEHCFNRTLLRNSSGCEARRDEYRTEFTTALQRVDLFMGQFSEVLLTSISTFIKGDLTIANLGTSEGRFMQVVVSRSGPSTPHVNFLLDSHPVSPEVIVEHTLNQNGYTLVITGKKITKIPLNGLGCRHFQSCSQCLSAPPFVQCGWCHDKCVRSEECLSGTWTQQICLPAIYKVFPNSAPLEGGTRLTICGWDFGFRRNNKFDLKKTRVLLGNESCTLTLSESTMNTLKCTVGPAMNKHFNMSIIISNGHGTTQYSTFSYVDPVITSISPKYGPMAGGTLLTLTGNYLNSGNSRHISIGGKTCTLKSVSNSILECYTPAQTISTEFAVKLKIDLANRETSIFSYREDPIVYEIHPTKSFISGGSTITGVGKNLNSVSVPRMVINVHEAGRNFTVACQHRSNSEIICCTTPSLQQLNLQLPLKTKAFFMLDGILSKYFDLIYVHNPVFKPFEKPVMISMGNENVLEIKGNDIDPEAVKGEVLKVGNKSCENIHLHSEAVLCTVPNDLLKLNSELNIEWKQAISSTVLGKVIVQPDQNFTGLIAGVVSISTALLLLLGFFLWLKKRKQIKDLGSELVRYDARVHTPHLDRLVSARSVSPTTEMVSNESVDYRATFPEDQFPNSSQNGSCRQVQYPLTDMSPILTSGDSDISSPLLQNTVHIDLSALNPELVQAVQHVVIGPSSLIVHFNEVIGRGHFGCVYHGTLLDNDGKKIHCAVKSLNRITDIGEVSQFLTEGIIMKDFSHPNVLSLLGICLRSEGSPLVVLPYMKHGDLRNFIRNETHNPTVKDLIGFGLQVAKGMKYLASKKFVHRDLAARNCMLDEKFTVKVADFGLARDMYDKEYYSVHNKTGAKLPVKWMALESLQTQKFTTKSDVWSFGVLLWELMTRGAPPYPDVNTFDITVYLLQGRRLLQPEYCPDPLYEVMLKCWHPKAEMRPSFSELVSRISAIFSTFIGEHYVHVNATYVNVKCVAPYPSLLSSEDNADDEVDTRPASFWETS

[7] = target: Serine/threonine-protein kinase MARK1 (Homo sapiens) (UniProt Q9P0L2); assay: Selectivity interaction (Ambit KINOMEscan and KiNATiv profiling in Jurkat cells) EUB0000090b MARK1; type: cell-based; conditions: at 1 µM
Sequence of Serine/threonine-protein kinase MARK1 (Homo sapiens) (Q9P0L2 whole entry, looked up): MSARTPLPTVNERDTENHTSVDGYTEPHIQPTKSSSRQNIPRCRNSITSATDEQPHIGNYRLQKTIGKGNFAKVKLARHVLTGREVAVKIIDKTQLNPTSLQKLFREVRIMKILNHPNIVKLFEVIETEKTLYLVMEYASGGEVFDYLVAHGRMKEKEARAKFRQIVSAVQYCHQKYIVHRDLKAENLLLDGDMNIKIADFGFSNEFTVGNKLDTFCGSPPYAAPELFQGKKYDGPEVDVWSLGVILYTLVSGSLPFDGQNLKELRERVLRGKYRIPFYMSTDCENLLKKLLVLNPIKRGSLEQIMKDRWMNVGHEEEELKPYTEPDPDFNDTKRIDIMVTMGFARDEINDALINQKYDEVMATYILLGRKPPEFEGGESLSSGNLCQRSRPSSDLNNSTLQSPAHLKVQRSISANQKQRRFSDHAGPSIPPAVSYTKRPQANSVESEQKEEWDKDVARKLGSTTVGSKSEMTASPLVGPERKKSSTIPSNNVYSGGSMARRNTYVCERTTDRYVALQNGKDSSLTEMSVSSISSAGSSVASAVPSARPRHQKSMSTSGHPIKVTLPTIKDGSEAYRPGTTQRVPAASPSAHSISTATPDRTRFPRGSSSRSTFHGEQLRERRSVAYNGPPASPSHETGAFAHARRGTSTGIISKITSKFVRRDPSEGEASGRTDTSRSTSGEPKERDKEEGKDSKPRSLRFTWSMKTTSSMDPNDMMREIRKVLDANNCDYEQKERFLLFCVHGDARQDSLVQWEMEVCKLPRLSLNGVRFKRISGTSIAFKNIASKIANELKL

[8] = target: T1, Tyrosine-protein kinase receptor TYRO3 (Homo sapiens) (UniProt Q06418); assay: Selectivity interaction (Ambit KINOMEscan and KiNATiv profiling in Jurkat cells) EUB0000090b TYRO3; type: cell-based; conditions: at 1 µM
T1 sequence (whole entry): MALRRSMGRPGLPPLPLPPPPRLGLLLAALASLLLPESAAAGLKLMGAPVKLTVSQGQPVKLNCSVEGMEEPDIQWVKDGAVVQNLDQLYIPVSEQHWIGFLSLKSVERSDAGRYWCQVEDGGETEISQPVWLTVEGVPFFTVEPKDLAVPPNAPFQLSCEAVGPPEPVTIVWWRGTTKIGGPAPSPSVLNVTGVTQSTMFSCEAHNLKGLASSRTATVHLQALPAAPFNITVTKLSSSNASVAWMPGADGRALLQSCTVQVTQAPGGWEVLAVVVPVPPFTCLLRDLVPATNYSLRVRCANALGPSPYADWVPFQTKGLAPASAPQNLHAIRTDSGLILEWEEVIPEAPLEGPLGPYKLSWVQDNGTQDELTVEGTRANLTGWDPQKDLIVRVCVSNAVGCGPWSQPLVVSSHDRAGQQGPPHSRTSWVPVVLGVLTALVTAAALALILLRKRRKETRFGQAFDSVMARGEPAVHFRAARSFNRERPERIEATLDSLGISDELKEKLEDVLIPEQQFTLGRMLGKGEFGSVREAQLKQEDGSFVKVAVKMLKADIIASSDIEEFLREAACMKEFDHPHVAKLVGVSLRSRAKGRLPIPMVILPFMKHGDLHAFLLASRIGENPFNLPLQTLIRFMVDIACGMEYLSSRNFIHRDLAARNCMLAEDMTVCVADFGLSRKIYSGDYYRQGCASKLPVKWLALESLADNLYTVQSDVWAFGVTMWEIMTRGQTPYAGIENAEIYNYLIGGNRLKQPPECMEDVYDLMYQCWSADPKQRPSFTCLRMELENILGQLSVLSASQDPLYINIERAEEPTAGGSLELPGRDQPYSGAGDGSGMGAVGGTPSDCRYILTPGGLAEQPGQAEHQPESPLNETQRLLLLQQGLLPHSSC

[9] = target: Serine/threonine-protein kinase mTOR (Homo sapiens, UniProt P42345); conditions: at 10 µM
[10] = target: Cyclin-dependent kinase 17 (Homo sapiens) (UniProt Q00537); conditions: at 10 µM
[11] = target: T2, Serine/threonine-protein kinase D1 (Homo sapiens) (UniProt Q15139); conditions: at 10 µM
T2 sequence (whole entry): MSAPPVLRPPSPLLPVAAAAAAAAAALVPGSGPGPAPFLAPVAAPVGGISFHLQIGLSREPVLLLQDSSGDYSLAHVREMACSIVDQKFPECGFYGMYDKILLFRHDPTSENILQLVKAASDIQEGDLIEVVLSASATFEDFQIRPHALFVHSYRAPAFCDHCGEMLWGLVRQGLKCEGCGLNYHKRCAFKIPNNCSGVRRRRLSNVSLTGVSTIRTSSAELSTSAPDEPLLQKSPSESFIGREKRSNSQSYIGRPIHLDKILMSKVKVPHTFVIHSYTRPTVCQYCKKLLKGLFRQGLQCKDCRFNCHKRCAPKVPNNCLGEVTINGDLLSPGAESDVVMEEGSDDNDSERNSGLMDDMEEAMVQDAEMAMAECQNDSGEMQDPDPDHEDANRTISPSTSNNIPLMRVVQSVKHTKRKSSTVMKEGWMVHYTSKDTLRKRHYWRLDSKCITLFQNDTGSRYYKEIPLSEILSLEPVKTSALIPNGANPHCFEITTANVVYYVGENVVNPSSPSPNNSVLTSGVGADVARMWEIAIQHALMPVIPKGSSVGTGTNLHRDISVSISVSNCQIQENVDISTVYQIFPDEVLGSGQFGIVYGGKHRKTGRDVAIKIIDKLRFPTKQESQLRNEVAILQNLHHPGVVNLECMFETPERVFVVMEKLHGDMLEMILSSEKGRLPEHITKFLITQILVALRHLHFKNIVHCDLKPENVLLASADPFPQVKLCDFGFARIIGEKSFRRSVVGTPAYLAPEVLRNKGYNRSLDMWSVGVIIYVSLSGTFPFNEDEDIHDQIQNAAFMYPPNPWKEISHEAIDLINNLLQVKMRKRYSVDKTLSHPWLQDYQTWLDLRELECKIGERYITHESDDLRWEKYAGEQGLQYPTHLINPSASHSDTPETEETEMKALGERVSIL

[12] = target: Receptor-interacting serine/threonine-protein kinase 2 (Homo sapiens, UniProt O43353); conditions: at 10 µM
Sequence of Receptor-interacting serine/threonine-protein kinase 2 (O43353 whole entry): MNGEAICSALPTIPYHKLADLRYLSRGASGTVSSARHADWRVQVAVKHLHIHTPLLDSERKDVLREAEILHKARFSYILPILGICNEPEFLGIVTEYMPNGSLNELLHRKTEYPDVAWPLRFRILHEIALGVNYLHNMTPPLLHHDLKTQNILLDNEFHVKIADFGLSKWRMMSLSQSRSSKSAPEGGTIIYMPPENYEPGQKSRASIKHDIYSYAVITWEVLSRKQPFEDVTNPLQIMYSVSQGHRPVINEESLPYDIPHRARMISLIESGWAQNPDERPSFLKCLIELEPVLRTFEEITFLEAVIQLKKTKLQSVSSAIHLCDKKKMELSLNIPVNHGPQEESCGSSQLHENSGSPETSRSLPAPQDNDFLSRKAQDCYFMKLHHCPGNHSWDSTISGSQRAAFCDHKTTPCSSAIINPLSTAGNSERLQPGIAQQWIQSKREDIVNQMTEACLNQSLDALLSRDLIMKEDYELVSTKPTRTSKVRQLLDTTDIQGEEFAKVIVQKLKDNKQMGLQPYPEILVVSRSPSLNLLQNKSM

[13] = target: Phosphatidylinositol 4-kinase beta (Homo sapiens, UniProt Q9UBF8); assay: Selectivity interaction (Enzyme panel (AstraZeneca, AlphaScreen, functional assay)) EUB0000621a PI4KB
Sequence of Phosphatidylinositol 4-kinase beta (Q9UBF8 whole entry): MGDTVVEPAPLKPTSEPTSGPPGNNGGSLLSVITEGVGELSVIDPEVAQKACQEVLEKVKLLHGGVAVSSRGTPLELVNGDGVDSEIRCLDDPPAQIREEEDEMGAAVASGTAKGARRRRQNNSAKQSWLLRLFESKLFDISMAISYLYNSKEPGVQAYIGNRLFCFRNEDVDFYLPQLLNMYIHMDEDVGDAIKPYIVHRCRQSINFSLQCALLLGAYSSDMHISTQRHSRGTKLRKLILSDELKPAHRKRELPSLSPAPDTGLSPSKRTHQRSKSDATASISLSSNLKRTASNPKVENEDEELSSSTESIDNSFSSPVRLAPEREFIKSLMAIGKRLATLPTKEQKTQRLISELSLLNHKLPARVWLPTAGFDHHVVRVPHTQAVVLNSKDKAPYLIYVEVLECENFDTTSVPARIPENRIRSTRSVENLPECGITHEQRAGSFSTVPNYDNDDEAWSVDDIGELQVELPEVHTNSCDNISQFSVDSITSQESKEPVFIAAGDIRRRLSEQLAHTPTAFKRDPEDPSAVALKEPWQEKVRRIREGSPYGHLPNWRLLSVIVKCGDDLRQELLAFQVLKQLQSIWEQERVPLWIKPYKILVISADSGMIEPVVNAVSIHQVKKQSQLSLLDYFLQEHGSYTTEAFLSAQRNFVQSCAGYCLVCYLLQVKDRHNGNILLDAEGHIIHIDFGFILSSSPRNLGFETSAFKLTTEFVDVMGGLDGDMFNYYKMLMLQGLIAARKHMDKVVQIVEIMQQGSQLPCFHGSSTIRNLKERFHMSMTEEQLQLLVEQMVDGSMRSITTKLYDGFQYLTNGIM

`O=C(NOC[C@H](O)CO)c1ccc(F)c(F)c1Nc1ccc(I)cc1F` showed a % of control [1] of 92%.

`CC[C@@H]1[C@H](F)C(=O)N[C@@H]1COc1nccc2cc(C(N)=O)c(OC)cc12` [ZIMLOVISERTIB] showed a % of inhibition [2] of 6%.

Molecule `COCC(=O)NC/C=C/c1ccc2ncnc(Nc3ccc(Oc4ccc(C)nc4)c(C)c3)c2c1` [CP-724714] has a % of control [3] of 99%.

Work on `COc1cc(Nc2nc(C)cc(-c3cnn4nc(OC)ccc34)n2)cc(C(F)(F)F)c1` yielded a % of control [4] of 82%, a % of control [5] of 100% and a % of control [6] of 93%.

`CN(C)C/C=C/C(=O)Nc1ccc(C(=O)N2CCCC(Nc3ncc(Cl)c(-c4c[nH]c5ccccc45)n3)C2)cc1` (stereo not drawn) gave a % of control [7] of 100% and a % of control [8] of 95%.

`CCC(=O)N1CCN(c2ccc(-n3c(=O)ccc4cnc5ccc(-c6cnc7ccccc7c6)cc5c43)cc2C(F)(F)F)CC1` was tested, and the % of control [9] was 0%.

Work on `Cc1cc([C@@H](C)Nc2ccccc2C(=O)O)c2nc(N3CCOCC3)cc(=O)n2c1` [AZD-6482] yielded a % of control [10] of 100%, a % of control [11] of 89% and a % of control [12] of 94%. The IC50 [13] was 10 nM.
